In patent publication US7928264B2, “Aminoalcohol derivatives” (Astellas Pharma Inc., priority 2004, dated 2011):

Tested on: increase in intravesical pressure induced by carbachol in anesthetized dog
Assay: Effect on the increase in intravesical pressure induced by carbachol in anesthetized dog
Type: in vivo
Conditions: 0.032 mg/kg, administered intradermally 30 minutes before carbachol (1.8 μg/kg); female Beagle dogs under halothane anesthesia
Method: Effect on the increase in intravesical pressure induced by carbachol in anesthetized dog
Female Beagle dogs weighing 8.0-15.0 kg were fasted for 24 hours and maintained under halothane anesthesia. A 12F Foley catheter was lubricated with water soluble jelly, inserted into the urethral orifice, and advanced approximately 10 cm until the balloon tip was placed well inside the bladder. The balloon was then inflated with 5 ml of room air and catheter slowly withdrawn just part the first resistance that was felt at the bladder neck. Urine was completely drained out through the catheter, and 30 ml of biological saline was infused. The catheter was connected to pressure transducer, and intravesical pressure (IVP) was continuously recorded. The test compound was administered intradermally at 30 minutes before the administration of carbachol (1.8 μg/kg). Percent inhibition of IVP increase by test compound was calculated by dividing IVPa (IVP increase induced by carbachol after test compound administration) by IVPb (IVP increase induced by carbachol just before test compound administration).

Compound: Cl.O=C(NS(=O)(=O)CCO)c1ccc(-c2ccc(CCNC[C@H](O)c3ccccc3)cc2)cc1OC1CCCCC1 [Test Compound (1), 3-(Cyclohexyloxy)-N-[(2-hydroxyethyl)sulfonyl]-4′-[2-[[(2R)-2-hydroxy-2-phenylethyl]amino]ethyl]-4-biphenylcarboxamide hydrochloride]
- Percent inhibition of IVP increase: 78%
